The values that follow come from patent publication US20150038430A1, “THERAPEUTIC PEPTIDOMIMETIC MACROCYCLES” (AILERON Therapeutics, Inc., priority 2008, published 2015).

Numbered stars: 1 amine (or outer) side, 2 acyl side, 3 side chain; on linkers, the order of the positions; unused ones are H or OH. Bridge positions count the residues as written; N and C are the ends. Square brackets hold non-standard residues; d marks the D form. Peptide text beside a SMILES is read from it. ξ: configuration not given here. ξαMeNle(6-ylidene) = CC(CCCC=[*:3])(N[*:1])C(=O)[*:2]; Nle = CCCC[C@H](N)C(=O)O

This data set is described as follows: Melting temperature determination by circular dichroism. The format is physicochemical. The conditions noted are these: 50 μM in ddH2O, CD at 222 nm, 5-95° C. As to the method:
To assay the effect of macrocycle formation on meltine temperature, peptidomimetic macrocycles or unmodified peptides are dissolved in distilled H2O (e.g. at a final concentration of 50 μM) and the Tm is determined by measuring the change in ellipticity over a temperature range (e.g. 4 to 95° C.) on a spectropolarimeter (e.g., Jasco J-710) using standard parameters (e.g. wavelength 222 nm; step resolution, 0.5 nm; speed, 20 nm/sec; accumulations, 10; response, 1 sec; bandwidth, 1 nm; temperature increase rate: 1° C./min; path length, 0.1 cm).
Lyophilized SP-1 was dissolved in ddH2O to a final concentration of 50 μM. Tm was determined by measuring the circular dichroism (CD) spectra in a Jasco-810 spectropolarimeter at a fixed wavelength of 222 nm between the temperatures of 5-95° C. The following parameters were used for the measurement: data pitch, 0.1° C.; bandwidth, 1 nm and path length, 0.1 cm averaging the signal for 16 seconds.
For orientation: Circular dichroism is widely used to follow secondary structure.

Take `CCCC[C@H](NC(=O)C1(C)CCCC=CCCCC(C)(NC(=O)[C@H](C)NC(=O)[C@H](CC(C)C)NC(=O)[C@H](Cc2c[nH]cn2)NC(=O)[C@H](CCCNC(=N)N)NC(=O)[C@H](C)NC(=O)[C@@H](NC(=O)[C@H](CC(N)=O)NC(=O)[C@H](CCCNC(=N)N)NC(=O)[C@@H](NC(=O)[C@@H](NC(=O)[C@H](CC(=O)O)NC(C)=O)[C@@H](C)CC)[C@@H](C)CC)[C@@H](C)CC)C(=O)N[C@@H](C(C)C)C(=O)NCC(=O)N[C@@H](CC(=O)O)C(=O)N1)C(=O)N[C@@H](CC(=O)O)C(=O)N[C@@H](CCCNC(=N)N)C(=O)N[C@@H](CO)C(=O)N[C@H](C(N)=O)[C@@H](C)CC` (stereo partly shown) [SP-1] (Ac-DIIRNIARHLA[ξαMeNle(6-ylidene)]VGD[ξαMeNle(6-ylidene)][Nle]DRSI-NH2; staple 12-16): the “temperature up to which helical conformation is maintained” value is “up to 64 °C”.
